{"source": "patent US6211439A", "about": "“Herbicide resistance in plants” (MGI Pharma, Inc, priority 1995, dated 2001)", "key": {"[1]": {"test_system": "XA17 seedlings homozygous for the herbicide resistance trait", "experiment": "Seedling assay, XA17 seedlings homozygous for the resistance trait", "assay_type": "in vivo, maize", "description": "Twenty control seeds and ten XA17 seeds were surface sterilized with 2.6% sodium hypochlorite for twenty minutes and then washed with sterile distilled water. The seed was imbibed overnight in sterile water containing a small quantity of the fungicide, captan (N-trichloromethylthio-4-cyclohexene-1,2-dicarboximide). The mature embryos were then excised from the seed and plated scutellum side down on solid MS media without 2,4-D. Ten control seeds were plated on media containing no 214 and ten were plated in the presence of 6×10^-8M 214 which had been incorporated into the medium after autoclaving but before gelling. All ten XA17 seeds were plated in the presence of 6×10^-8 M 214. Seedlings were evaluated seven days after plating.\nXA17 seeds homozygous for the resistance trait were obtained as described in Section 6.4.6. […] Assays were conducted as described in Section 6.4.5."}, "cell line XA119": {"test_system": "cell line XA119", "experiment": "Tolerance of cell line XA119 at the cellular level", "assay_type": "cell-based, maize"}, "[2]": {"test_system": "Unselected culture tissue", "experiment": "Herbicide inhibition of plant regeneration, unselected culture tissue", "assay_type": "cell-based, maize", "description": "Eighty to 90 mg quantities of maize callus tissue were transferred to embryo and shoot development (regeneration) media in petri plates. The media consisted of MS basal media supplemented with 0.1 mg per liter 2,4-D and 1×10^-7 M abscissic acid. 0.25% Gelrite (Kelco Co., San Diego, Calif.) was used as a solid support in place of agar. The tissue was incubated in the dark at 26° C. (approximately 300 footcandles,soft white fluorescent) on a cycle of 14 hours light, 10 hours dark. Developing plants reaching a size of 1-3 cm were then transferred to flasks or jars, containing MS media with no supplementation, for further development. When plants reached the two to three leaf stage, they were moved to pots containing vermiculite and exposed to light at 2600 footcandles. These plants were watered with 20% v/v MS media for one week and then with water until they grew stably. The plants were then transferred to soil for growth to maturity.\nThe effect of various concentrations of 214 on plant regeneration embryo and shoot development were evaluated. Unselected culture tissue was transferred to regeneration media containing various concentrations of 214 ranging from 0.01 to 0.3 mg per liter. The tissue was then put through the first three weeks of the plant regeneration protocol described supra. The culture was scored after this time for the production of well defined shoots."}, "[3]": {"test_system": "isozymes of AHAS (I, II and III)", "experiment": "E. coli AHAS isozymes assayed in vitro", "assay_type": "biochemical", "conditions": "millimolar concentrations", "text": "Genes encoding AHAS are common to the aspartate and branched chain amino acid pathways in plants and microorganisms (Umbarger, 1978, Ann. Rev. Biochem, 47: 533-606). AHAS catalyzes the first step in the synthesis of the amino acids leucine, valine and isoleucine. AHAS activity is regulated in vivo by various end products or combination of end products of the biosynthetic pathway. AHAS genes with a variety of regulatory characteristics are available from microorganisms including, but not limited to, Escherichia coli, yeast and Neurospora. These might include AHAS genes which are naturally resistant to the imidazolinone herbicides. […] Resistance of E. coli to AC 243,997 therefore appears to be the result of an insensitive site of action as opposed to being a result of metabolism of the herbicide. Resistance in other organisms is likely to be of the same nature, providing a variety of sources of a gene encoding an herbicide resistant AHAS. The genes encoding all three E. coli isozymes have been cloned and sequenced. Selection for imidazolinone resistant mutant AHAS genes in microorganisms or plants including plant tissue cultures would provide a diverse source of genes which, when transferred to plants, produce herbicide resistant plants."}, "Corn Suspension Cultures": {"test_system": "Corn Suspension Cultures", "experiment": "Free amino acid levels in suspension cultures of the embryogenic cell line used for selection", "assay_type": "cell-based, maize", "conditions": "1 × 10^-5 M 997", "description": "Suspension culture cells were treated for 3.5 hours or 48 hours with 1×10^-5 M 997. Cells were removed from suspension by filtration and 1 gram fresh weight quantities were ground with sand with a mortar and pestle in 1 ml 5% TCA. Four ml of 5% TCA were added and the extract centrifuged at 10,000×g for 10 minutes. The pellet was reextracted and the supernatants combined and subjected to cation exchange chromatography. The samples were applied to Bond Elut SCX columns (Analytichem International Inc., Harbor City, Calif.) which had been equilibrated with 5% TCA. Following sample application, the columns were washed with 5 ml distilled, deionized water, and the amino acids were eluted with 2 ml aliquots of 5% v/v triethylamine. The aliquots were combined (6 ml), lyophilized, and subjected to amino acid analysis with a Kontron Liquemat III amino acid analyzer (Hesber, Middlesex TW5 OQU, England).\nThe embryogenic cell line used in the selection for herbicide resistant cells (see Section 6.2.1) was different from the cell line used in the characterization of the site of action of 997 described in Section 6.1. Consequently, the effects of 997 on pool sizes of free amino acids in the cell line used in the selection procedure was also studied. The protocol described in Section 6.1.4 was followed for these studies."}, "[4]": {"conditions": "average ± standard deviation of three replicates"}}}
{"molecule": "CC(C)C1(C)NC(c2nc3ccccc3cc2C(=O)O)=NC1=O", "note": "(stereo not shown) [compound 214, 2-(5-isopropyl-5-methyl-4-oxo-2-imidazolin-2-yl)3-quinolinecarboxylic acid]", "values": [{"measurement": "shoot growth inhibition at the highest concentration tested", "setting": "[1]; 3×10^-6 M, seedlings homozygous for the resistance trait", "result": "no inhibition"}, {"measurement": "resistance of XA17 homozygous seedlings", "setting": "[1]; vs control seedlings", "result": "at least 100 fold"}, {"measurement": "enhancement of tolerance at the cellular level", "setting": "cell line XA119", "result": "approximately three fold"}, {"measurement": "somatic embryo development and shoot formation", "setting": "[2]; 0.3 mg per liter 214", "result": "completely inhibited"}, {"measurement": "IC50", "setting": "[2]; Zea mays, 504 h, based on the number of shoots formed, first three weeks of regeneration protocol, read-out: concentration inhibiting plant regeneration 50%", "result": "0.03 to 0.1", "unit": "µg/mL"}]}
{"molecule": "CC(C)C1(C)NC(c2ncccc2C(=O)O)=NC1=O", "note": "(stereo not shown) [compound 997, 2-(5-isopropyl-5-methyl-4-oxo-2-imidazolin-2-yl)nicotinic acid]", "values": [{"measurement": "sensitivity of AHAS isozymes I, II and III", "setting": "[3]", "result": "insensitive to millimolar concentrations"}, {"measurement": "ala B/A (treated/control)", "setting": "Corn Suspension Cultures", "result": 2.6}, {"measurement": "arg B/A (treated/control)", "setting": "Corn Suspension Cultures", "result": 1.4}, {"measurement": "asp B/A (treated/control)", "setting": "Corn Suspension Cultures", "result": 2.2}, {"measurement": "glu B/A (treated/control)", "setting": "Corn Suspension Cultures", "result": 3.8}, {"measurement": "gly B/A (treated/control)", "setting": "Corn Suspension Cultures", "result": 13.0}, {"measurement": "ile B/A (treated/control)", "setting": "Corn Suspension Cultures", "result": 2.4}, {"measurement": "leu B/A (treated/control)", "setting": "Corn Suspension Cultures", "result": 0.52}, {"measurement": "lys B/A (treated/control)", "setting": "Corn Suspension Cultures", "result": 1.8}, {"measurement": "met B/A (treated/control)", "setting": "Corn Suspension Cultures", "result": 3.8}, {"measurement": "phe B/A (treated/control)", "setting": "Corn Suspension Cultures", "result": 6.6}, {"measurement": "ser B/A (treated/control)", "setting": "Corn Suspension Cultures", "result": 8.7}, {"measurement": "thr B/A (treated/control)", "setting": "Corn Suspension Cultures", "result": 6.4}, {"measurement": "tyr B/A (treated/control)", "setting": "Corn Suspension Cultures", "result": 2.1}, {"measurement": "val B/A (treated/control)", "setting": "Corn Suspension Cultures", "result": 0.27}, {"measurement": "Free ala level (B)", "setting": "Corn Suspension Cultures; [4]", "result": "5750 ± 1100 n mol per g fresh wt tissue"}, {"measurement": "Free arg level (B)", "setting": "Corn Suspension Cultures; [4]", "result": "70 ± 60 n mol per g fresh wt tissue"}, {"measurement": "Free asp level (B)", "setting": "Corn Suspension Cultures; [4]", "result": "5700 ± 650 n mol per g fresh wt tissue"}, {"measurement": "Free glu level (B)", "setting": "Corn Suspension Cultures; [4]", "result": "8550 ± 210 n mol per g fresh wt tissue"}, {"measurement": "Free gly level (B)", "setting": "Corn Suspension Cultures; [4]", "result": "3130 ± 230 n mol per g fresh wt tissue"}, {"measurement": "Free ile level (B)", "setting": "Corn Suspension Cultures; [4]", "result": "220 ± 10 n mol per g fresh wt tissue"}, {"measurement": "Free leu level (B)", "setting": "Corn Suspension Cultures; [4]", "result": "120 ± 10 n mol per g fresh wt tissue"}, {"measurement": "Free lys level (B)", "setting": "Corn Suspension Cultures; [4]", "result": "230 ± 140 n mol per g fresh wt tissue"}, {"measurement": "Free met level (B)", "setting": "Corn Suspension Cultures; [4]", "result": "190 ± 80 n mol per g fresh wt tissue"}, {"measurement": "Free phe level (B)", "setting": "Corn Suspension Cultures; [4]", "result": "790 ± 90 n mol per g fresh wt tissue"}, {"measurement": "Free ser level (B)", "setting": "Corn Suspension Cultures; [4]", "result": "20000 ± 2000 n mol per g fresh wt tissue"}, {"measurement": "Free thr level (B)", "setting": "Corn Suspension Cultures; [4]", "result": "2960 ± 270 n mol per g fresh wt tissue"}, {"measurement": "Free tyr level (B)", "setting": "Corn Suspension Cultures; [4]", "result": "410 ± 80 n mol per g fresh wt tissue"}, {"measurement": "Free val level (B)", "setting": "Corn Suspension Cultures; [4]", "result": "140 ± 10 n mol per g fresh wt tissue"}]}
